According to patent US9938292B2 (GUANGDONG ZHONGSHENG PHARMACEUTICAL CO., LTD, priority 2014, dated 2018):

Tested on: Hedgehog signaling pathway
Test: Gli-Luc luciferase reporter gene assay in C3H10T1/2/Gli-Luc cells under Shh-N stimulation
Assay type: cell-based
Conditions: Mus musculus, C3H 10T1/2, 24 h, luciferase RLU, read-out: biological activity: IC50 of the inhibitory activities of compounds on the hedgehog pathway
From the text: The luciferase (Gli-Luc) reporter gene with Gli response element was transfected into C3H10T1/2 cells, under Shh-N stimulation conditions, determine the Hedgehog signaling pathway inhibitors through the detection of gene expression in cell activity report. In this study, we evaluated the inhibitory effects of compounds on Hedgehog signaling pathway in the IC50 value of the compound as an index.
Cell lines: C3H10T1/2/Gli-Luc stable cell line • C3H10T1/2/Gli-Luc Cell culture medium (DMEM/high glucose HyClone, #SH30022.01B; 10% serum Hyclone, #SV30087; 0.4% Hygromycin B Roche, #13398200) • 0.25% Trypsin-EDTA (Gibco, #25200)
Shh-N, HEK293/SHH-N stable cell culture supernatant
Inoculate the logarithmic growth phase of C3H10T1/2/Gli-Luc cells into a 96-well culture plate with 20000 cells per well, cells were cultured in a 37° C., 5% CO2 incubator overnight. The next day, the compounds were diluted in the following ways: the positive compound GDC0449 (1 mM) and the compounds (1 mM) to be measured were serially diluted to 7 concentrations by DMSO according to 1:3 and 1:10 respectively, the eighth is for DMSO control, and then diluted with fresh medium 100 times. The medium of the cells cultured overnight was removed, 80 μL fresh culture medium was added per well, then 20 μL gradiently diluted positive compound and compounds to be measured and 100 μL 30 nM Shh-N containing conditioned medium were added, each concentration repeated 2 wells, at the same time, positive and negative reference well were set (i.e. Shh Ctrl: 80 μL fresh medium+20 μL 1% DMSO containing medium+100 μL 30 nM Shh-N containing conditioned medium; Unstimulated Ctrl: 180 μL fresh medium+20 μL 1% DMSO containing medium), cells were cultured in the incubator for further 24 h.
Intracellular luciferase activity detection: take the cells out of 96-well plate, discard the culture medium, the cells were washed with PBS twice, then each well added with 20 μL lysate (Promega E1531), oscillate pyrolysis at room temperature for 30 min. 5 μL cell lysates were transferred to 384-well plate (Greiner 781074), then each well was added with 25 μL luciferase reaction liquid (Promega E1501), after rapid mixed, immediately placed into the VarioSkan Flash multi-function reading instrument to read the relative light units (RLU) value.
Data analysis: using Prism's GraphPad 5 for data analysis. RLU reading to the logarithmic mapping of compound concentration on behalf of luciferase activity, and then curve fitting using the following equation to give IC50 value, Y (RLU)=minimum+(maximum−minimum)/(1+10^(log of compound concentration−Log IC50)).

COc1c(-c2ccc(N3C[C@@H](C)O[C@@H](C)C3)cc2F)cnc2c(-c3ccc(C#N)cc3)cccc12 [Embodiment 168, 4-(3-(4-((2S,6R)-2,6-dimethylmorpholino)-2-fluorophenyl)-4-methoxyquinolin-8-yl) benzonitrile]
IC50: ≤ 50 nM

COc1ccc(-c2cccc3c(OC)c(-c4ccc(N5C[C@@H](C)O[C@@H](C)C5)cc4)cnc23)cn1 [Embodiment 100]
IC50: 100 to 500 nM

COc1c(-c2ccc(N3C[C@@H](C)N(C(=O)C(C)N)[C@@H](C)C3)nc2)cnc2c(-c3ccc(C#N)cc3)cccc12 (some centres unmarked) [Embodiment 199]
IC50: 100 to 500 nM

CC(C)(O)c1ccc(N2CCN(c3cnc4c(-c5ccc(C#N)cc5)cccc4c3C3CC3)CC2)nc1 [Embodiment 224]
IC50: ≤ 50 nM

CC(C)(O)c1ccc(N2CCN(c3cnc4c(-c5ccc(C#N)cc5)cccc4c3C3CC3)C(=O)C2)nc1 [Embodiment 254, 4-(4-cyclopropyl-3-(4-(5-(2-hydroxypropan-2-yl)pyridin-2-yl)-2-oxopiperazin-1-yl)quinolin-8-yl)benzonitrile]
IC50: ≤ 50 nM

COc1c(N2CCN(C(=O)N(C)C3CCOCC3)CC2)cnc2c(-c3ccc(C#N)cc3)cccc12 [Embodiment 213]
IC50: ≤ 50 nM

CCC(=O)N1[C@H](C)CN(c2ccc(-c3nc4c(-c5ccc(C#N)cc5)cccc4[nH]3)cn2)C[C@@H]1C [Embodiment 250, 4-(2-(6-(3,5-dimethyl-4-propionylpiperazin-1-yl)pyridin-3-yl)-1H-benzo[d]imidazol-4-yl)benzonitrile]
IC50: 100 to 500 nM

COc1c(N2CCC(N3C[C@@H](C)O[C@@H](C)C3)CC2)cnc2c(-c3ccc(C#N)cc3)cccc12 [Embodiment 227, 4-(3-(4-(2,6-dimethylmorpholino)piperidin-1-yl)-4-methoxyquinolin-8-yl) benzonitrile]
IC50: ≤ 50 nM

COC(=O)N1[C@H](C)CN(c2ccc(-n3cc(C)c4c(-c5ccc(C#N)cc5)cccc4c3=O)cc2)C[C@H]1C [Embodiment 19]
IC50: 100 to 500 nM

COc1c(-c2ccc(N3C[C@@H](C)N(C(=O)C(C)F)[C@@H](C)C3)nc2)cnc2c(-c3ccc(C#N)cc3)cccc12 (stereo partly drawn) [Embodiment 193, 4-(3-(6-((3S, 5R)-4-(2-fluoropropanoyl)-3,5-dimethylpiperazin-1-yl)pyridin-3-yl)-4-methoxyquinolin-8-yl)benzonitrile]
IC50: 100 to 500 nM

COc1c(-c2ccc(N3C[C@@H](C)O[C@@H](C)C3)cc2)cnc2c(-c3ccc(C#N)cc3C)cccc12 [Embodiment 105]
IC50: ≤ 50 nM

COc1c(-c2ccc(N3C[C@@H](C)O[C@@H](C)C3)cc2)cnc2c(-c3ccc(F)nc3)cccc12 [Embodiment 93]
IC50: ≤ 50 nM

COc1c(-c2ccc(N3C[C@@H](C)N(C(=O)c4ccncc4)[C@@H](C)C3)cc2)cnc2c(-c3ccc(C#N)cc3)cccc12 [Embodiment 201]
IC50: ≤ 50 nM

COc1c(-c2ccc(N3C[C@@H](C)O[C@@H](C)C3)nc2)cnc2c(-c3ccccc3)cccc12 [Embodiment 162]
IC50: ≤ 50 nM

COc1c(N2CCN(C(=O)CC(C)(C)O)CC2)cnc2c(-c3ccc(C#N)cc3)cccc12 [Embodiment 214]
IC50: ≤ 50 nM

CCC(=O)N1[C@H](C)CN(c2ccc(-c3cnc4c(-c5ccc(C#N)cc5)cccc4c3OC)cn2)C[C@@H]1C [Embodiment 204]
IC50: ≤ 50 nM

COc1c(-c2ccc(N3C[C@@H](C)O[C@@H](C)C3)cc2C)cnc2c(-c3ccc(C#N)cc3)cccc12 [Embodiment 169]
IC50: ≤ 50 nM

COc1c(N2CCC(O)(c3cc(C)cc(C)n3)CC2)cnc2c(-c3ccc(C#N)cc3)cccc12 [Embodiment 231, 4-(3-(4′-hydroxy-4,6-dimethyl-3′,4′,5′,6′-tetrahydro-2′H-[2,4′]bipyridyl-1′-yl)-4-methoxyquinolin-8-yl) benzonitrile]
IC50: ≤ 50 nM

COc1c(-c2ccc(N3C[C@@H](C)N(C(=O)c4ccccn4)[C@@H](C)C3)cc2)cnc2c(-c3ccc(C#N)cc3)cccc12 [Embodiment 186]
IC50: ≤ 50 nM

CCCOC(=O)N1[C@H](C)CN(c2ccc(-c3cnc4c(-c5ccc(C#N)cc5)cccc4c3OC)cc2)C[C@@H]1C [Embodiment 184]
IC50: 50 to 100 nM
